Reference: patent US8895761B2, “4-phenylpyrane-3,5-diones, 4-phenylthiopyrane-3,5-diones and 2-phenylcyclohexane-1,3,5-triones as herbicides” (Syngenta Limited, priority 2007, dated 2014)

Tests used:
Type in all cases: in vivo
[1] = tested on: Alopecurus myosuroides (ALOMY); assay: Post-emergence herbicidal glasshouse test, Alopecurus myosuroides; details: Alopecurus myosuroides, 312 h, rate 250 g/ha, evaluated after 13 days, scale 100 = total damage to plant, 0 = no damage
Experimental: (§1) Seeds of a variety of test species were sown in standard soil in pots. After cultivation for one day (pre-emergence) or after 8 days cultivation (post-emergence) under controlled conditions in a glasshouse (at 24/16° C., day/night; 14 hours light; 65% humidity), the plants were sprayed with an aqueous spray solution derived from the formulation of the technical active ingredient in acetone/water (50:50) solution containing 0.5% Tween 20 (polyoxyethelyene sorbitan monolaurate, CAS RN 9005-64-5). The test plants were then grown in a glasshouse under controlled conditions in a glasshouse (at 24/16° C., day/night; 14 hours light; 65% humidity) and watered twice daily. After 13 days for pre and post-emergence, the test was evaluated ([…] to plant; 0=no damage to plant).
(§2) Setaria faberi (SETFA), Lolium perenne (LOLPE), Alopecurus myosuroides (ALOMY), Echinochloa crus-galli (ECHCG) and Avena fatua (AVEFA).

[2] = tested on: Echinochloa crus-galli (ECHCG); assay: Pre-emergence herbicidal glasshouse test, Echinochloa crus-galli; details: Echinochloa crus-galli, 312 h, rate 250 g/ha, evaluated after 13 days, scale 100 = total damage to plant, 0 = no damage
Experimental: as §1, §2

Lolium perenne (LOLPE) [3] = assay: Post-emergence herbicidal glasshouse test, Lolium perenne; details: 312 h, rate 250 g/ha, evaluated after 13 days, scale 100 = total damage to plant, 0 = no damage
Experimental: as §1, §2

Lolium perenne (LOLPE) [4] = assay: Pre-emergence herbicidal glasshouse test, Lolium perenne; details: 312 h, rate 250 g/ha, evaluated after 13 days, scale 100 = total damage to plant, 0 = no damage
Experimental: as §1, §2

Avena fatua (AVEFA) [5] = assay: Post-emergence herbicidal glasshouse test, Avena fatua; details: Avena fatua, 312 h, rate 250 g/ha, evaluated after 13 days, scale 100 = total damage to plant, 0 = no damage
Experimental: as §1, §2

Avena fatua (AVEFA) [6] = assay: Pre-emergence herbicidal glasshouse test, Avena fatua; details: Avena fatua, 312 h, rate 250 g/ha, evaluated after 13 days, scale 100 = total damage to plant, 0 = no damage
Experimental: as §1, §2

[7] = tested on: Echinochloa crus-galli (ECHCG); assay: Post-emergence herbicidal glasshouse test, Echinochloa crus-galli; details: Echinochloa crus-galli, 312 h, rate 250 g/ha, evaluated after 13 days, scale 100 = total damage to plant, 0 = no damage
Experimental: as §1, §2

[8] = tested on: Alopecurus myosuroides (ALOMY); assay: Pre-emergence herbicidal glasshouse test, Alopecurus myosuroides; details: Alopecurus myosuroides, 312 h, rate 250 g/ha, evaluated after 13 days, scale 100 = total damage to plant, 0 = no damage
Experimental: as §1, §2

Structure (SMILES) | pest or weed control at 250 g/ha [1] | pest or weed control at 250 g/ha [2] | pest or weed control at 250 g/ha (Lolium perenne (LOLPE) [3]) | pest or weed control at 250 g/ha (Lolium perenne (LOLPE) [4]) | pest or weed control at 250 g/ha (Avena fatua (AVEFA) [5]) | pest or weed control at 250 g/ha (Avena fatua (AVEFA) [6]) | pest or weed control at 250 g/ha [7] | pest or weed control at 250 g/ha [8]
CCc1cc(-c2ccc(C)cc2)ccc1C1=C(O)C(C)(C)OC(C)(C)C1=O [Compound A-73] | 30% | 0% | 60% | 0% | 0% | 0% | 80% | 0%
CCc1cc(-c2cc(Cl)ccc2OC)ccc1C1=C(O)C(C)(C)OC(C)(C)C1=O [Compound A-74] | 80% | 0% | 70% | 0% | 40% | 0% | 100% | 0%
CCc1cc(-c2ccc(F)c(F)c2)ccc1C1=C(O)C(C)(C)OC(C)(C)C1=O [Compound A-75] | 90% | 0% | 100% | 40% | 90% | 30% | 100% | 0%
CCc1cc(-c2ccc(F)c(Cl)c2)ccc1C1=C(O)C(C)(C)OC(C)(C)C1=O [Compound A-76] | 80% | 0% | 80% | 0% | 40% | 0% | 70% | 0%
CCc1cc(-c2ccc(F)c(OC)c2)ccc1C1=C(O)C(C)(C)OC(C)(C)C1=O [Compound A-78] | 80% | 0% | 100% | 80% | 90% | 30% | 100% | 20%
CCc1cc(-c2ccc(F)cc2F)ccc1C1=C(O)C(C)(C)OC(C)(C)C1=O [Compound A-82] | 80% | 30% | 80% | 70% | 0% | 20% | 80% | 10%
CCc1cc(-c2cc(Cl)cc(C(F)(F)F)c2)ccc1C1=C(O)C(C)(C)OC(C)(C)C1=O [Compound A-83] | 80% | 0% | 70% | 0% | 50% | 0% | 80% | 0%
CCc1cc(-c2cc(F)c(F)c(F)c2)ccc1C1=C(O)C(C)(C)OC(C)(C)C1=O [Compound A-84] | 80% | 30% | 100% | 70% | 100% | 40% | 100% | 30%
CCc1cc(-c2ccc(F)cc2OC)ccc1C1=C(O)C(C)(C)OC(C)(C)C1=O [Compound A-85] | 60% | 20% | 70% | 70% | 40% | 30% | 80% | 0%
CCc1cc(-c2cc(F)c(F)cc2F)ccc1C1=C(O)C(C)(C)OC(C)(C)C1=O [Compound A-86] | 80% | 0% | 90% | 0% | 70% | 0% | 100% | 0%
CCc1cc(-c2ccc(F)c(F)c2F)ccc1C1=C(O)C(C)(C)OC(C)(C)C1=O [Compound A-87] | 70% | 0% | 90% | 0% | 90% | 0% | 100% | 0%
